Reference: patent publication US8796245B2 (TetraPhase Pharmaceuticals, Inc., priority 2008, dated 2014)
Values after ≈ are worked out from the molar mass of the structure shown.

What was measured:
Type in all cases: cell-based
[1] = test system: E. cloacae ATCC 13047 (EC108); assay: Minimum inhibitory concentration assay, EC108; details: Enterobacter cloacae, ATCC13047; E. cloacae ATCC 13047, wt; read-out: MICs EC108
Method: (§1) Frozen bacterial strains were thawed and subcultured onto Mueller Hinton Broth (MHB) or other appropriate media (Streptococcus requires blood and Haemophilus requires hemin and NAD). Following incubation overnight, the strains were subcultured onto Mueller Hinton Agar and again incubated overnight. […] Isolated colonies were selected to prepare a starting inoculum equivalent to a 0.5 McFarland standard. The starting inoculum was diluted 1:125 using MHB for further use. Test compounds were prepared by dilution in sterile water to a final concentration of 5.128 mg/mL. Antibiotics (stored frozen, thawed and used within 3 hours of thawing) and compounds were further diluted to the desired working concentrations.
(§2) The assays were run as follows. Fifty μL of MHB was added to wells 2-12 of a 96-well plate. One hundred […] of appropriately diluted antibiotics was added to well 1. Fifty μL of antibiotics was removed from well 1 and added to well 2 and the contents of well 2 mixed by pipetting up and down five times. Fifty μL of the mixture in well 2 was removed and added to well 3 and mixed as above. Serial dilutions were continued in the same manner through well 12. Fifty μL was removed from well 12 so that all contained 50 μL. Fifty μL of the working inoculum was then added to all test wells. A growth control well was prepared by adding 50 μL of working inoculum and 50 μL of MHB to an empty well. The plates were then incubated at 37° C. overnight, removed from the incubator and each well was read on a plate reading mirror. The lowest concentration (MIC) of test compound that inhibited the growth of the bacteria was recorded.

[2] = test system: A. baumanii ATCC 19606 (AB110); assay: Minimum inhibitory concentration assay, AB110; details: Acinetobacter baumannii, ATCC19606; A. baumanii ATCC 19606, wt; read-out: MICs AB110
Method: as §1, §2

[3] = test system: E. coli ATCC 25922 (EC107); assay: Minimum inhibitory concentration assay, EC107; details: Escherichia coli, ATCC25922; E. coli ATCC 25922, wt; read-out: MICs EC107
Method: as §1, §2

[4] = test system: S. aureus SA161 (tet resistant: tet(M) ribosomal protection); assay: Minimum inhibitory concentration assay, SA161; details: Staphylococcus aureus, read-out: MICs SA161
Method: as §1, §2

[5] = test system: E. coli EC155 (tet resistant: tetA efflux); assay: microbe, parasite or virus in culture; details: Escherichia coli; E. coli tet resistant: tetA (efflux); read-out: MICs EC155
Method: as §1, §2

[6] = test system: S. aureus SA158 (tet resistant: tetK efflux); assay: microbe, parasite or virus in culture; details: Staphylococcus aureus, read-out: MICs SA158
Method: as §1, §2

[7] = test system: K. pneumoniae KP153 (tet resistant: tetA efflux); assay: microbe, parasite or virus in culture; details: Klebsiella pneumoniae, read-out: MICs KP153
Method: as §1, §2

[8] = test system: E. faecalis ATCC 29212 (EF103); assay: Minimum inhibitory concentration assay, EF103; details: Enterococcus faecalis, ATCC29212, read-out: MICs EF103
Method: as §1, §2

[9] = test system: P. aeruginosa ATCC 27853 (PA111); assay: Minimum inhibitory concentration assay, PA111; details: Pseudomonas aeruginosa, ATCC27853; P. aeruginosa ATCC 27853, wt; read-out: MICs PA111
Method: as §1, §2

[10] = test system: E. faecalis EF159 (tet resistant: tetM); assay: Minimum inhibitory concentration assay, EF159; details: Enterococcus faecalis, read-out: MICs EF159
Method: as §1, §2

[11] = test system: S. pneumoniae ATCC 49619 (SP106); assay: Minimum inhibitory concentration assay, SP106; details: Streptococcus pneumoniae, ATCC49619; S. pneumoniae ATCC 49619, wt; read-out: MICs SP106
Method: as §1, §2

[12] = test system: S. aureus ATCC 13709 (SA100, MSSA, Smith strain); assay: Minimum inhibitory concentration assay, SA100; details: Staphylococcus aureus; S. aureus ATCC 13709, MSSA Smith strain; read-out: MICs SA100
Method: as §1, §2

[13] = test system: S. pneumoniae SP160 (tet resistant: tet M); assay: Minimum inhibitory concentration assay, SP160; details: Streptococcus pneumoniae, read-out: MICs SP160
Method: as §1, §2

[14] = test system: K. pneumoniae ATCC 13883 (KP109); assay: Minimum inhibitory concentration assay, KP109; details: Klebsiella pneumoniae, ATCC13883; K. pneumoniae ATCC 13883, wt; read-out: MICs KP109
Method: as §1, §2

[15] = test system: S. aureus ATCC 29213 (SA101, MSSA); assay: Minimum inhibitory concentration assay, SA101; details: Staphylococcus aureus; S. aureus ATCC 29213, MSSA control; read-out: MICs SA101
Method: as §1, §2

CCCN(C)CC(=O)Nc1cc(F)c2c(c1O)C(=O)C1=C(O)[C@]3(O)C(=O)C(C(N)=O)=C(O)[C@@H](N(C)C)[C@@H]3C[C@@H]1C2 [Compound 28]
MIC [1]: 8 µg/mL (≈ 14.3 µM) | MIC [2]: 0.5 µg/mL (≈ 0.892 µM) | MIC [3]: 2 µg/mL (≈ 3.57 µM) | MIC [4]: 2 µg/mL (≈ 3.57 µM) | MIC [5]: 16 µg/mL (≈ 28.5 µM) | MIC [6]: 1 µg/mL (≈ 1.78 µM) | MIC [7]: 16 µg/mL (≈ 28.5 µM) | MIC [8]: 1 µg/mL (≈ 1.78 µM) | MIC [9]: > 32 µg/mL | MIC [10]: 1 µg/mL (≈ 1.78 µM) | MIC [11]: 0.125 µg/mL (≈ 0.223 µM) | MIC [12]: 2 µg/mL (≈ 3.57 µM) | MIC [13]: 0.0625 µg/mL (≈ 0.111 µM) | MIC [14]: 4 µg/mL (≈ 7.14 µM) | MIC [15]: 1 µg/mL (≈ 1.78 µM)

CCCCCCCNCC(=O)Nc1cc(F)c2c(c1O)C(=O)C1=C(O)[C@]3(O)C(=O)C(C(N)=O)=C(O)[C@@H](N(C)C)[C@@H]3C[C@@H]1C2 [Compound 29]
MIC [1]: 8 µg/mL (≈ 13.3 µM) | MIC [2]: 8 µg/mL (≈ 13.3 µM) | MIC [3]: 8 µg/mL (≈ 13.3 µM) | MIC [4]: 4 µg/mL (≈ 6.64 µM) | MIC [5]: 8 µg/mL (≈ 13.3 µM) | MIC [6]: 2 µg/mL (≈ 3.32 µM) | MIC [7]: 8 µg/mL (≈ 13.3 µM) | MIC [8]: 2 µg/mL (≈ 3.32 µM) | MIC [9]: > 32 µg/mL | MIC [10]: 2 µg/mL (≈ 3.32 µM) | MIC [11]: 1 µg/mL (≈ 1.66 µM) | MIC [12]: 4 µg/mL (≈ 6.64 µM) | MIC [13]: 1 µg/mL (≈ 1.66 µM) | MIC [14]: 8 µg/mL (≈ 13.3 µM) | MIC [15]: 4 µg/mL (≈ 6.64 µM)

CN(C)[C@@H]1C(O)=C(C(N)=O)C(=O)[C@@]2(O)C(O)=C3C(=O)c4c(O)c(NC(=O)CNc5ccccc5)cc(F)c4C[C@H]3C[C@@H]12 [Compound 30]
MIC [1]: > 32 µg/mL | MIC [2]: 8 µg/mL (≈ 13.8 µM) | MIC [3]: > 32 µg/mL | MIC [4]: 4 µg/mL (≈ 6.89 µM) | MIC [5]: > 32 µg/mL | MIC [6]: 2 µg/mL (≈ 3.44 µM) | MIC [7]: > 32 µg/mL | MIC [8]: 2 µg/mL (≈ 3.44 µM) | MIC [9]: > 32 µg/mL | MIC [10]: 2 µg/mL (≈ 3.44 µM) | MIC [11]: 2 µg/mL (≈ 3.44 µM) | MIC [12]: 1 µg/mL (≈ 1.72 µM) | MIC [13]: 4 µg/mL (≈ 6.89 µM) | MIC [14]: > 32 µg/mL | MIC [15]: 2 µg/mL (≈ 3.44 µM)

CN(CC(=O)Nc1cc(F)c2c(c1O)C(=O)C1=C(O)[C@]3(O)C(=O)C(C(N)=O)=C(O)[C@@H](N(C)C)[C@@H]3C[C@@H]1C2)C1CCCC1 [Compound 31]
MIC [1]: 8 µg/mL (≈ 13.6 µM) | MIC [2]: 0.5 µg/mL (≈ 0.852 µM) | MIC [3]: 2 µg/mL (≈ 3.41 µM) | MIC [4]: 2 µg/mL (≈ 3.41 µM) | MIC [5]: 8 µg/mL (≈ 13.6 µM) | MIC [6]: 1 µg/mL (≈ 1.7 µM) | MIC [7]: 8 µg/mL (≈ 13.6 µM) | MIC [8]: 0.5 µg/mL (≈ 0.852 µM) | MIC [9]: > 32 µg/mL | MIC [10]: 1 µg/mL (≈ 1.7 µM) | MIC [11]: 0.25 µg/mL (≈ 0.426 µM) | MIC [12]: 2 µg/mL (≈ 3.41 µM) | MIC [13]: 0.25 µg/mL (≈ 0.426 µM) | MIC [14]: 4 µg/mL (≈ 6.82 µM) | MIC [15]: 1 µg/mL (≈ 1.7 µM)

CN(C)[C@@H]1C(O)=C(C(N)=O)C(=O)[C@@]2(O)C(O)=C3C(=O)c4c(O)c(NC(=O)CN5CCC5)cc(F)c4C[C@H]3C[C@@H]12 [Compound 32]
MIC [1]: 1 µg/mL (≈ 1.84 µM) | MIC [2]: 2 µg/mL (≈ 3.67 µM) | MIC [3]: 0.25 µg/mL (≈ 0.459 µM) | MIC [4]: 0.25 µg/mL (≈ 0.459 µM) | MIC [5]: 8 µg/mL (≈ 14.7 µM) | MIC [6]: 0.5 µg/mL (≈ 0.918 µM) | MIC [7]: 4 µg/mL (≈ 7.35 µM) | MIC [8]: 0.0625 µg/mL (≈ 0.115 µM) | MIC [9]: 8 µg/mL (≈ 14.7 µM) | MIC [10]: 0.125 µg/mL (≈ 0.23 µM) | MIC [11]: ≤ 0.0156 µg/mL | MIC [12]: 0.5 µg/mL (≈ 0.918 µM) | MIC [13]: ≤ 0.0156 µg/mL | MIC [14]: 1 µg/mL (≈ 1.84 µM) | MIC [15]: 0.125 µg/mL (≈ 0.23 µM)

CN(C)[C@@H]1C(O)=C(C(N)=O)C(=O)[C@@]2(O)C(O)=C3C(=O)c4c(O)c(NC(=O)CC5CC(F)C5)cc(F)c4C[C@H]3C[C@@H]12 (stereo partly drawn) [Compound 33]
MIC [1]: 16 µg/mL (≈ 28.5 µM) | MIC [2]: 4 µg/mL (≈ 7.12 µM) | MIC [3]: 2 µg/mL (≈ 3.56 µM) | MIC [4]: 1 µg/mL (≈ 1.78 µM) | MIC [5]: > 32 µg/mL | MIC [6]: 2 µg/mL (≈ 3.56 µM) | MIC [7]: > 32 µg/mL | MIC [8]: 0.25 µg/mL (≈ 0.445 µM) | MIC [9]: > 32 µg/mL | MIC [10]: 1 µg/mL (≈ 1.78 µM) | MIC [11]: ≤ 0.0156 µg/mL | MIC [12]: 0.5 µg/mL (≈ 0.89 µM) | MIC [13]: 0.125 µg/mL (≈ 0.223 µM) | MIC [14]: 4 µg/mL (≈ 7.12 µM) | MIC [15]: 0.25 µg/mL (≈ 0.445 µM)

CN(C)[C@@H]1C(O)=C(C(N)=O)C(=O)[C@@]2(O)C(O)=C3C(=O)c4c(O)c(NC(=O)CN5CCCC5)cc(F)c4C[C@H]3C[C@@H]12 [Compound 34]
MIC [1]: 1 µg/mL (≈ 1.79 µM) | MIC [2]: 0.125 µg/mL (≈ 0.224 µM) | MIC [3]: 0.25 µg/mL (≈ 0.448 µM) | MIC [4]: 0.0625 µg/mL (≈ 0.112 µM) | MIC [5]: 2 µg/mL (≈ 3.58 µM) | MIC [6]: 0.125 µg/mL (≈ 0.224 µM) | MIC [7]: 2 µg/mL (≈ 3.58 µM) | MIC [8]: ≤ 0.0156 µg/mL | MIC [9]: 16 µg/mL (≈ 28.6 µM) | MIC [10]: ≤ 0.0156 µg/mL | MIC [11]: ≤ 0.0156 µg/mL | MIC [12]: 0.0625 µg/mL (≈ 0.112 µM) | MIC [13]: ≤ 0.0156 µg/mL | MIC [14]: 0.5 µg/mL (≈ 0.895 µM) | MIC [15]: ≤ 0.0156 µg/mL
